{"source": "patent US20240142458A1", "about": "“FLUORESCENT PROBES FOR QUANTIFICATION OF FREE COPPER” (TECHNISCHE UNIVERSITÄT BERLIN, priority 2020, published 2024)", "key": {"Caco-2 cells": {"test_system": "Caco-2 cells", "experiment": "Fluorescence labeling of Caco-2 enterocytes (emission spectra, confocal imaging)", "type": "cell-based, human", "method": "FIG. 2: Caco-2 fluorescence labeling with Phenylphosphonate-substituted porphyrines. • Caco-2 cells were incubated with increasing concentrations of p-H8TPPA or m-H8TPPA followed by fluorescence measurement (⋅Exc/Em.416 nm/650 nm). Data are means±S.E.M. of n=3 independent experiments.\nFIG. 5: Fluorescence labeling of Caco-2 enterocytes by phenylphosphonate-substituted porphyrines. • Fluorescence emission spectra of Caco-2 cells exposed to p-H8TPPA, m-H8TPPA (A) or the isopropyl-modified phosphonate p-H8TPPA-iPr8 (C) in comparison with each of the phenylphosphonate porphyrins as 10 μM dilution in assay buffer (⋅Exc416 nm). (B) Confocal images of Caco-2 upon loading with p-H8TPPA or m-H8TPPA. (D) Confocal images of p-H8TPPA-iPr8 in the presence or absence of Caco-2 cells. Scale bar=10 μm. Data are representative for three independent experiments.\nThe human intestinal cell line Caco-2 (European Collection of Cell Cultures, Porton Down, UK) were routinely cultured at 37° C., 5% CO2 and humidified atmosphere in Dulbecco's Modified Eagles Medium (DMEM), containing 10% fetal calf serum (FCS) 100 U/mL penicillin and 100 μg/ml streptomycin. For cellular phosphonate porphyrins experiments, Caco-2 cells were transferred into 96 wells (initially seeding 5000 cells per well) and cultured for 14 days for differentiation into an enterocyte-like monolayer^53,54. For phosphonate labeling, differentiated cells were treated with either m-H8TPPA, p-H8TPPA or p-H8TPPA-iPr8 in a HEPES-based incubation buffer (10 mM HEPES, pH 7.35, 120 mM NaCl, 5.4 mM KCl, 5 mM glucose, 1.3 mM CaCl2, 1 mM MgCl2, 1 mM NaH2PO4, 0.3% bovine serum albumin) for […] Excess fluorescent dye was removed by multiple washing steps before fluorescence emission scanning using 416 nm excitation (Tecan Infinite M200 reader; Tecan, Grödig/Salzburg, […]). To analyze metal responsiveness of the intracellular phosphonate porphyrins, cells were post-treated with 50 μM of different metal solutions at 37° C. in an albumin-free incubation buffer in a time-course experiment.\nFluorescence images of phosphonate porphyrin-labeled Caco-2 enterocytes were acquired on a Leica TCS SP8 laser scanning confocal microscope equipped with LAS X 3.5.5.19976 software platform, using a HC PL APO CS2 63×/1.20 water objective. The filters settings were[…]Exc488 nm/[…]Em580 nm; pinhole 111.5 μm, pinhole size 1 AU."}, "[1]": {"experiment": "Metal-dependent changes of absorbance and fluorescence properties, cell-free", "conditions": "isopropyl diester, phosphonate blocked for metal binding", "method": "FIG. 1: Metal-dependent changes of p-H8TPPA absorbance and fluorescence properties. • 10 μM p-H8TPPA dilutions were treated with various metal solutions (final concentration 40 μM) before recording (A) absorbance, (B) fluorescence excitation (⋅Em.650 nm) and (C) fluorescence emission (⋅⋅Exc.415 nm) spectra. Data are representative for three independent experiments.\nFIG. 3: Metal-dependent changes of m-H8TPPA absorbance and fluorescence properties. • 10 μM m-H8TPPA dilutions were treated with various metal solutions (final concentration 40 μM) before recording (A) absorbance, (B) fluorescence excitation (⋅Em.650 nm) and (C) fluorescence emission (⋅⋅Exc.415 nm) spectra. Data are representative for three independent experiments.\nAiming to use arylphosphonate-tethered porphyrins as real-time cellular metal fluorescence sensors, we first characterized their metal-responsiveness under cell-free conditions. p-H8TPPA (see FIG. 1) and m-H8TPPA (see FIG. 3), were pretreated with various bivalent metal ions at a pH close to the cellular milieu (pH 7.4) before recording absorption and fluorescence spectra. […] Following Co^2+ treatment absorption spectra were less intense, plateau-shaped with a bathochromic broadening up to 434 nm. Hg^2+-treatment red-shifted the Soret band by approximately 30 nm. […] Despite of their restricted fluorescence intensity, the fluorescence emission patterns of all the aforementioned metal-treated arylphosphonate-tethered porphyrins seemed to be […] almost indistinguishable from the buffer-controls (see FIG. 1C, FIGS. 2 and 4). Zn^2+ treatment led to a declined and much more broadened Soret band in the range of 380-430 nm (see FIG. 1A). […] Thus, we assume a fluorescence quenching effect of Zn^2+ that requires further investigation.\nAbsorption spectra were recorded with a Tecan Infinite M200 Reader (Tecan Austria GmbH, Grödig/Salzburg, Switzerland) from 350 to 500 nm. The same device was used in fluorescence mode to measure fluorescence excitation ([…]; ⋅⋅Em. 650 nm) and fluorescence emission (550-850 nm; ⋅⋅Exc. 415 nm) spectra. 3D scanning was performed on a Spark® multimode microplate reader (Tecan Austria GmbH, Grodig/Salzburg, Switzerland) from 350 to 450 nm (Exc.) and 555 to 850 nm (Em.) with a 5 nm step size, excitation and emission bandwidths of 5 nm, and a detector gain of 100. A typical reaction mix was made by combining equal volumes of 20 μM phosphonate porphyrins diluted in assay-buffer (50 mM HEPES in bidistilled water adjusted to […] with sodium hydroxide solution; depleted of multivalent cations with Chelex® 100 Resin pretreatment^51) and a double-concentrated metal cation solution. Following 30 min incubations at 37° C. absorption or fluorescence measurements were done. For redox conversion tests the CuSO4 solutions were pretreated with 500 μM of L-ascorbic acid before admixing into the phosphonate porphyrin dilutions. To evaluate the effect of metal chelators, the metal cation-treated incubation mixtures were posttreated with 50 equivalents of EDTA or EGTA for 15 min before fluorescence emission readout."}, "[2]": {"experiment": "Solubility in aqueous media with detergent pluronic", "type": "physicochemical", "conditions": "pluronic F-127"}}, "data": [{"smiles": "CC(C)OP(=O)(OC(C)C)c1ccc(-c2c3nc(c(-c4ccc(P(=O)(OC(C)C)OC(C)C)cc4)c4ccc([nH]4)c(-c4ccc(P(=O)(OC(C)C)OC(C)C)cc4)c4nc(c(-c5ccc(P(=O)(OC(C)C)OC(C)C)cc5)c5ccc2[nH]5)C=C4)C=C3)cc1", "note": "[p-H8TPPA-iPr8, 5,10,15,20-tetrakis[p-(diisopropoxyphosphoryl)phenyl] porphyrin]", "values": [{"measurement": "passage of the cellular membrane / cellular uptake", "setting": "Caco-2 cells; Caco-2 cells, fluorescence spectra and confocal imaging", "result": "inaccessible for cellular uptake"}, {"measurement": "microcrystal size in confocal microscopy pictures", "setting": "Caco-2 cells; incubation buffer, with or without Caco-2 cells", "result": "~20", "unit": "μm"}, {"measurement": "fluorescence change upon metal binding", "setting": "[1]", "result": "no fluorescence change"}, {"measurement": "effect of detergent pluronic on solubility in aqueous media", "setting": "[2]", "result": "did not improve the solubility"}]}]}
